Legend:
[1] = Solubility in Japanese pharmacopoeia test liquids; type: physicochemical
Text: For example, the above pyrimidinedione derivative is a basic drug, and has general characteristics that it is easily soluble on an acid side of a pH but very little soluble on a neutral side or an alkaline side. That is to say, in the digestive organs, the pyrimidinedione derivative is easily dissolved and released in the stomach owing to an acid therein, but the dissolution and the release of the pyrimidinedione derivative deteriorate in the intestines because the intestines are a neutral or an alkaline state. Furthermore, the deterioration of the solubility of the pyrimidinedione derivative with the increase of the pH is remarkable.

[2] = Oral administration test of the drug, concentration in blood
Text: For example, in Example 18 of Japanese Patent Application Laid-open No. 173873/1991, the pyrimidinedione derivative is sufficiently mixed with lactose and starch, and the resultant mixture is then filled into capsules to manufacture the desired drug. The present inventors actually carried out an oral administration test for the drug.

solubility ([1]; jp test liquid no. 1, Japanese pharmacopoeia test liquid No. 1 (pH = 1.2)): ≥ 1000 mg/mL
solubility ([1]; jp test liquid no. 2, Japanese pharmacopoeia test liquid No. 2 (pH = 6.8)): ≤ 0.1 mg/mL
Tmax [2]: ≤ 30 min
Structure (SMILES): Cn1c(NCCN(CCO)CCCc2ccc([N+](=O)[O-])cc2)cc(=O)n(C)c1=O [the pyrimidinedione derivative, 1,3-dimethyl-6-{2-{N-(2-hydroxyethyl)-N-[3-(4-nitrophenyl)propyl]amino}ethylamino}-2,4-(1H,3H)-pyrimidinedione]
